Columns and labels:
[1] = system: MEFs; experiment: RNA-seq gene expression; type: cell-based, mouse
From the text: RNA-seq. Sequencing results were demultiplexed and converted to FASTQ format using Illumina bcl2fastq software. The sequencing reads were adapter and quality trimmed with Trimmomatic and then aligned to the mouse genome (build mm10/GRCm38) using the splice-aware STAR aligner. The featureCounts program was utilized to generate counts for each gene based on how many aligned reads overlap its exons. These counts were then normalized and used to test for differential expression using negative binomial generalized linear models implemented by the DESeq2 R package.

[2] = system: MEFs; experiment: Mitochondrial depolarization assay (TMRE membrane potential); type: cell-based, mouse
Method: Mitochondrial depolarization assay (mtΔΨ). MEFs (10^4 cells/well) were seeded in a 96-well black plate and treated with MASM7 or MFI8 for 6 hrs. Following treatments, cells were stained with 250 nM TMRE (Sigma; Cat. 87917) for 20 min at 37° C. Subsequently, cells were washed with thrice with PBS. Fluorescence intensity was detected by a M100 microplate reader (TECAN, Ex: 540 nm/Em: 579 nm).

[3] = system: HT29 cells; experiment: Cell viability, colon cancer cells; type: cell-based; conditions: HT29, 72 hr, Cell titer Glo
Method: (§1) Cell titer Glo was used to measure viability. Cells were treated with MFI8 for 72 hr (n=3, mean±SD).
(§2) Cell viability assay. Cells (5×10^3 cells/well) were seeded in a 96-well white plate and treated with serial dilutions of MASM7 or MFI8. Cell viability was assayed after 72 hrs by addition of CellTiter-Glo reagent according to the manufacturer's protocol (Promega). Luminescence was measured using a F200 PRO microplate reader (TECAN). Viability assays were performed in at least triplicate and the data normalized to vehicle-treated control wells. Dilutions of MASM7 or MFI8 were performed using a TECAN D300e Digital Dispenser from 10 mM stocks.

[4] = system: H508 cells; experiment: Cell viability, colon cancer cells; type: cell-based; conditions: H508, 72 hr, Cell titer Glo
Method: as §1, §2

[5] = system: U2OS cells; experiment: Caspase-3/7 activation assay in U2OS cells; type: cell-based
Method: (§3) Caspase-3/7 activation assay. Cells (5×10^3 cells/well) were seeded in a 96-well white plate and treated with MASM7, MFI8. Caspase 3/7 activation was measured after 6 hr by addition of the Caspase-Glo 3/7 reagent according to the manufacturer's protocol (Promega). Luminescence was detected by a F200 PRO microplate reader (TECAN). Caspase assays were performed in at least triplicate and the data normalized to vehicle-treated control wells. Dilutions of MASM7 or MFI8 were performed using a TECAN D300e Digital Dispenser from 10 mM stocks.

[6] = system: MEFs; experiment: Caspase-3/7 activation assay; type: cell-based, mouse
Method: as §3

[7] = system: MEFs; experiment: Metabolomics (TCA cycle carboxylic acids, NAD, NADH); type: cell-based, mouse; conditions: UPLC-MRM/MS
Method: Metabolomics. […] Cells were harvested using a cell scraper and centrifuged at 1200 rpm in 4° C. for 3 min. Each cell pellet sample was suspended into 250 to 700 μL of 80% aqueous methanol in an Eppendorf tube. The samples were vortex mixed for 15 s and sonicated in an ice-water bath for 5 min, followed by centrifugal clarification at 15,000 rpm and 5° C. in an Eppendorf […] centrifuge. The clear supernatants were collected. A standard stock solution of TCA cycle carboxylic acids, NAD and NADH was prepared in 80% methanol as S1. This standard solution S1 was serially diluted 1 to 4 (v/v) with the same solvent to make standard solutions S2 to S10. 20 μL of each standard solution and an aliquot of the clear supernatant from each cell was mixed with 20 μL of an internal standard solution containing 9 ^13C- or deuterium labeled analogues of the TCA cycle carboxylic acids (except isocitric acid), 20 μL of 200 mM 3-NPH solution and 20 μL of 150 mM of EDC solution. The mixtures were allowed to react at 30° C. for 30 min. After reaction, 120 μL of water was added to each solution. 10 μL of the resultant solutions was injected into a C18 UPLC column to quantitate the TCA cycle carboxylic acids by UPLC-MRM/MS with (-) ion detection, according to the procedure we described in a publication.

[8] = system: MEFs; experiment: DNA damage, yH2AX immunofluorescence in MEFs; type: cell-based, mouse; conditions: 6 h
Method: Immunofluorescent analysis and microscopy. […] After treatments, cells were washed with PBS and fixed with 4% PFA for 15 min. […] After incubation with primary antibodies, cells were washed with PBS and incubated with the appropriate mouse secondary antibody (ThermoFisher Scientific; A-11001) in the blocking solution. After PBS washes, coverslips were dipped in water and mounted on glass slides using Vectashield containing DAPI (Vector laboratories). […] Data were analyzed with ImageJ.

[9] = system: U2OS cells; experiment: Cell death with BV6 in U2OS cells; type: cell-based
Method: Cell death assay. Cells (2×10^5 cells/well) were seeded in a 6-well plate and treated with the indicated drugs for 6 hours. Cells were dissociated using Accutase (Thermo Fisher; Cat. #00-4555-56) in order to avoid accidental exposure of phosphatidylserine on the outer plasma membrane. Cell death was evaluated with Dead Cell Apoptosis Kit with Annexin V Alexa Fluor™ 488 & Propidium Iodide (Thermo Fisher; Cat. #V13241) according to manufacturer's protocol. Data was acquired by BD LSRII flow cytometer system using BD FACSDiva software. Data was analyzed by FlowJo (BD).

[10] = system: MEFs; experiment: Cytochrome C release; type: cell-based, mouse; conditions: 6 hrs treatment, cytosolic and mitochondrial fractions
Method: Cytochrome C release. MEFs were seeded in a 10 cm^2 dish and grown at ˜70% confluence. Following 6 hrs treatment with MFI8, cells were harvested and lysed in digitonin buffer [20 mM Hepes, pH 7.2, 10 mM KCl, 5 mM MgCl2, Im MEDTA, 1 mM EGTA, 250 mM sucrose, 0.025% Digitonin (from 5% w/v stock) and complete protease inhibitors (Roche Applied Science)] on ice for 10 min. Then, supernatants were isolated by centrifugation at 15,000×g for 10 min. Mitochondrial pellets solubilized in 1% Triton X-100/PBS for 1 hr at 4° C. Solubilized Pellets were subjected to a 14,000×rpm spin for 10 min. Samples were prepared for western blot analysis and separated by 4-12% NuPage (Life Technologies).

[11] = system: MV-411 cells; experiment: Cell viability, leukemia cells; type: cell-based; conditions: MV-411, 72 hr, Cell titer Glo
Method: as §1, §2

[12] = system: MOLM13 cells; experiment: Cell viability, leukemia cells; type: cell-based; conditions: MOLM13, 72 hr, Cell titer Glo
Method: as §1, §2

In the case of `Cc1cccc(NC(C)c2cc(Cl)ccc2O)c1C` (stereo not drawn) [MFI8, 4-Chloro-2-(1-((2,3-dimethylphenyl)amino)ethyl)phenol], the “expression of genes involved in DNA damage response” value ([1]; MEFs) is reported as “up-regulated several genes that are involved in DNA damage response”, the “gene expression of subunits of the respiratory complexes” value ([1]; RNA-seq) is reported as “reduced the gene expression of several nuclear-encoded subunits of the respiratory complexes” and the “mitochondrial membrane potential (TMRE)” value ([2]; MFN1/MFN2 DKO MEFs reconstituted with L692A MFN2) is reported as “not when reconstituted with L692A MFN2”. The “mitochondrial membrane potential (TMRE)” value ([2]; MFN1/MFN2 DKO MEFs reconstituted with WT MFN2) was “significantly decreased mitochondrial membrane potential”, the “mitochondrial membrane potential (TMRE)” value ([2]; WT MEFs, 6 hrs) was “concentration responsively decreased mitochondrial membrane potential” and the viability [3] was “concentration responsively reduces viability”. For the same compound, the viability [4] was “concentration responsively reduces viability”, the caspase-3/7 activation [5] was “induced caspase-3/7 activation” and the caspase-3/7 activity ([6]; 6 hr, Caspase-Glo 3/7) was “concentration-responsively increased caspase-3/7 activity”. For the same compound, the “caspase 3/7 activity” value ([6]; deletion of APAF-1) was “detrimental for the capacity of MFI8 to increase caspase 3/7 activity”, the caspase-3/7 activity ([6]; deletion of MFN1/MFN2) was “impaired the capacity of MFI8 to increase caspase-3/7 activity” and the “metabolites of the TCA cycle” value [7] was “markedly reduced several metabolites such as malate, oxaloacetate, and α-ketoglutarate”. The “DNA damage (yH2AX foci)” value ([8]; MFN1/MFN2 DKO MEFs) was “not in MFN1/MFN2 DKO MEFs”, the “DNA damage (yH2AX foci)” value ([8]; WT MEFs) was “increased yH2AX foci in WT MEFs” and the “cell death in combination with BV6” value [9] was “synergistically induce cell death”. The “cytochrome c release to the cytosol” value [10] was “cytochrome c was released to the cytosol, albeit at modest levels”, the viability [11] was “concentration responsively reduces viability” and the viability [12] was “concentration responsively reduces viability”.

From patent US20240366540A1, “MITOFUSIN INHIBITORS AND USES THEREOF” (Albert Einstein College of Medicine, priority 2021, published 2024)
